Experimental data taken from patent US8183236B2, “Compounds with HIV-1 integrase inhibitory activity and use thereof as anti-HIV/AIDS therapeutics” (University of Southern California, priority 2007, dated 2012).

How the values were obtained:
[1] = molecular target: T1, HIV-1 integrase (wild-type IN) (Human immunodeficiency virus type 1 group M subtype B, UniProt P12497); experiment: HIV-1 integrase 3′-processing assay (32P-labeled 21-mer, gel); format: biochemical
Procedure, shortened: (§1)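 Wild-type IN at 200 nM preincubated with inhibitor 30 min at 30 °C in MnCl2 (7.5 mM), pH 7.2 MOPS buffer with 10% DMSO, then 20 nM 5′-32P-labeled 21-mer duplex added for 1 h. 19-mer and strand-transfer products resolved on denaturing 20% gels by phosphorimaging; IC50 from log concentration versus % inhibition.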

[2] = molecular target: T1, HIV-1 integrase (wild-type IN); experiment: HIV-1 integrase strand transfer assay (32P-labeled 21-mer, gel); format: biochemical
Procedure, shortened: as §1

[3] = wild-type IN 200 nM, 7.5 mM MnCl2, read-out: Inhibition of IN Catalytic Activities IC50 (μM) 3′-processing
[4] = wild-type IN 200 nM, 7.5 mM MnCl2, read-out: Inhibition of IN Catalytic Activities IC50 (μM) Strand Transfer
[5] = unit inferred, read-out: HIV-1 IN Inhibitory Activities 3′-processing
[6] = unit inferred, read-out: HIV-1 IN Inhibitory Activities Strand transfer

| Structure (SMILES) | IC50 [1, 3] | IC50 [2, 4] | also measured |
| --- | --- | --- | --- |
| NC(=S)N1CCN(c2c(F)c(N)c3c(=O)c(C(=O)O)cn(C4CC4)c3c2F)CC1 [ROM3A5] | > 100 µM | > 100 µM | – |
| CCn1cc(C(=O)O)c(=O)c2cc(F)c(N3CCN(C(=S)S)CC3)cc21 [ROM3A6] | > 100 µM | > 100 µM | – |
| CCn1cc(C(=O)O)c(=O)c2c(N)c(F)c(N3CCNCC3)c(F)c21 [ROM3A7] | > 100 µM | 95 µM | – |
| CCn1cc(C(=O)O)c(=O)c2cc(F)c(N3CCN(C(=S)NC(=O)C45CC6CC(CC(C6)C4)C5)CC3)cc21 [ROM3A8] | 78 µM | 74 µM | – |
| O=C(NC(=S)N1CCN(c2cc3c(cc2F)c(=O)c(C(=O)O)cn3C2CC2)CC1)c1ccc(Cl)cc1 [ROM3A9] | 80 µM | 53 µM | – |
| O=C(NC1CC1)c1c[nH]c2ccc(S(=O)(=O)Nc3cccc(C(F)(F)F)c3)cc2c1=O [ROM3A10] | 93 µM | 92 µM | – |
| O=C(NCc1cccs1)c1c[nH]c2ccc(S(=O)(=O)Nc3ccc4c(c3)OCCO4)cc2c1=O [ROM3A11] | 91 µM | 90 µM | – |
| O=C(O)c1c[nH]c2c(F)c(F)c(F)c(NCc3ccccc3)c2c1=O [ROM3] | > 12 µM | 12 µM | – |
| Oc1cccc2ccc(/C=N/N=C/c3ccc4cccc(O)c4n3)nc12 [RT3] | 45 µM | 69 µM | – |
| O=C(O)CCN1C(=O)/C(=C\c2ccc(-c3cccc(Cl)c3)o2)SC1=S [RT23] | > 100 µM | 21 µM | – |
| Oc1cccc2ccc(/C=C/c3ccc(-c4cccc(Cl)c4)o3)nc12 [RT29] | 30 µM | 70 µM | – |
| Cc1ccc2ccc(C(Nc3ccccn3)c3ccc(F)cc3)c(O)c2n1 (centres unmarked) [RT30] | > 100 µM | > 100 µM | – |
| Cc1cc([N+](=O)[O-])ccc1-c1ccc(/C=C/c2ccc3cccc(O)c3n2)o1 [RT31] | 57 µM | > 100 µM | – |
| CCOc1cc(/C=C2/C(=N)N3N=C(C(C)(F)F)SC3=NC2=O)ccc1OCc1ccc(F)cc1 [RT35] | 90 µM | 19 µM | – |
| CC1=NN2C(=N)/C(=C/c3ccc(-c4ccccc4Cl)o3)C(=O)N=C2S1 [RT42] | > 100 µM | > 100 µM | – |
| O=C(N/N=C/c1ccc(-c2ccc(O)c(C(=O)O)c2)o1)c1cccnc1 [SA1] | 59 µM | 9 µM | IC50 ([1]; unit inferred, read-out: IN inhibition activity 3′-processing): 59 ± 1 µM; IC50 ([2]; unit inferred, read-out: IN inhibition activity Strand transfer): 9 ± 5 µM |
| CCn1cc(C(=O)O)c(=O)c2cc(F)c(N3CCN(S(=O)(=O)c4ccc(NC(C)=O)cc4)CC3)cc21 [SR9] | > 100 µM | > 100 µM | – |

| Structure (SMILES) | IC50 [1, 3] | IC50 [2, 4] | also measured |
| --- | --- | --- | --- |
| O=c1cc(-c2ccccc2)c2ccc(O)c(O)c2o1 [SR44] | 32 µM | 16 µM | – |
| CCn1c(=O)c(C(=O)Nc2cc(Cl)ccc2OC)c(O)c2ccccc21 [XR5] | 74 µM | 19 µM | – |
| CCCCCn1c(=O)c(C(=O)Nc2cc([N+](=O)[O-])ccc2O)c(O)c2ccccc21 [XR6] | 9 µM | 9 µM | – |
| C=CCn1c(=O)c(C(=O)Nc2ccccc2S(N)(=O)=O)c(O)c2ccccc21 [XR7] | 83 µM | 45 µM | – |
| Cn1c(=O)c(C(=O)Nc2ccccc2S(N)(=O)=O)c(O)c2ccccc21 [XR8] | 50 µM | 39 µM | – |
| CCn1c(=O)c(C(=O)Nc2ccccc2O)c(O)c2ccccc21 [XR10] | 72 µM | 32 µM | – |
| Cn1c(=O)c(C(=O)Nc2ccccc2C(F)(F)F)c(O)c2ccccc21 [XR12] | 81 µM | 28 µM | – |
| CCCCCn1c(=O)c(C(=O)Nc2ccccc2S(N)(=O)=O)c(O)c2ccccc21 [XR13] | 11 µM | 13 µM | – |
| CCCCn1c(=O)c(C(=O)Nc2ccccc2S(N)(=O)=O)c(O)c2ccccc21 [XR14] | 15 µM | 17 µM | – |
| Cc1cc2nc(-c3cc(NC(=O)c4ccc(F)cc4)ccc3O)oc2cc1C [XR16] | – | – | IC50 [1, 5]: < 100 µM; IC50 [2, 6]: < 100 µM |
| COc1ccc(C(=O)Nc2ccc(O)c(-c3nc4ccccc4o3)c2)cc1[N+](=O)[O-] [XR17] | – | – | IC50 [1, 5]: 6 µM; IC50 [2, 6]: 7 µM |
| COc1cc(C(=O)Nc2ccc(O)c(-c3nc4ccccc4o3)c2)cc(OC)c1OC [XR18] | – | – | IC50 [1, 5]: < 100 µM; IC50 [2, 6]: < 100 µM |
| O=C(Nc1ccc(O)c(-c2nc3ccccc3o2)c1)c1ccccc1F [XR19] | – | – | IC50 [1, 5]: < 100 µM; IC50 [2, 6]: < 100 µM |
| O=C(Nc1ccc(O)c(-c2nc3ccccc3o2)c1)c1cccc2ccccc12 [XR21] | – | – | IC50 [1, 5]: 14 µM; IC50 [2, 6]: 6 µM |
| COc1ccccc1C(=O)Nc1ccc(O)c(-c2nc3cc(C)ccc3o2)c1 [XR22] | – | – | IC50 [1, 5]: < 100 µM; IC50 [2, 6]: < 100 µM |
| O=C(NNC(=O)c1c(O)c2ccccc2[nH]c1=O)c1ccccc1Cl [XR44] | 28 µM | 26 µM | – |
